Here are results for ten sequences from publication PMC12647017, “Discovery and optimization of a synthetic small protein domain targeting antibodies” (Frontiers in Bioengineering and Biotechnology, 2025).

The test concerns human polyclonal IgG. Nature of the test: Screening ELISA of phage display clones (crude extracts) against human polyclonal IgG. The test is classed as binding. The arrangement: key: High: high binders (Abs>0.4); Moderate: moderate signal. The settings on record: crude extract of clones from 6th panning round, 1 µg/well human polyclonal IgG, blocked 3% (w/v) BSA in TBS, 50 µL extract 1 h at 37 °C, Anti-HA tag-HRP, ABTS, Abs405nm. The method, then:
The biopanning of the previously developed WWp5_4 library ([Dias et al., 2025]) (Figures 1A,B) against human polyclonal IgG was performed for six rounds, after which an enrichment of ligands was observed (Supplementary Table S3). To assess the binding of each clone to the target, 192 clones were selected and expressed at small scale in 96-deep well blocks, following conditions previously optimised. After cell lysis, the supernatant containing the soluble fraction was used for ELISA assays. The results in Figure 1C illustrate the difference in the absorbance profile of the screened ligands. […] From these 26, only 21 presented high quality for reliable sequencing results. The sequence alignment and diversity of the different binders is represented in Table 1 and Figure 2A.
Small Scale Protein Expression and screening ELISA: From the output of the 6th round of panning, 94 isolated colonies were peaked into two sterile 96-well deep well 2mL round-bottom plates and grown with 200 µL of LB with ampicillin, 125 rpm, 37 °C, overnight (master plates). The following day, to one of the master plates was added glycerol to achieve a final concentration of 15% and was stored at -80 °C. Regarding the other master plate, 12 µL of this culture was added to another sterile 96-well deep well 2 mL round-bottom plate with 1.2 mL of LB with ampicillin and was grown at 37 °C, 125 rpm until OD600nm achieved 0.5-0.6. After this, protein expression was induced with 1 mM IPTG and continued incubation with the previous conditions. The following day, the cultures were sonicated for 30 minutes in ice-water bath and centrifuged for 10 minutes at 2500 x g. The supernatant was collected and transferred to a new microplate to be used in the screening for the ELISA (crude extract). For the ELISA, three microplates were tested: A) Sample binding plate; B) Negative control plate; C) Expression plate. On the sample binding plate, 1 µg/well of human polyclonal IgG was immobilized on the plate at 4 °C, overnight. On the following day, the target was removed, and the wells were washed once with TBS, then the plate was blocked with 300 µL 3% (w/v) BSA in TBS for 1 hour at 37 °C. After this, the wells were washed once with TBS, and were then incubated with 50 µL of crude extract (containing WW domain) for 1 hour at 37 °C. The plate was then washed 5 times with TBS-T, and then incubated with 100 µL of the Anti-HA tag-HRP conjugated antibody (diluted 1:1000) for 1 hour at 37 °C. The plate was then washed once with TBS-T and 4 times with TBS, and then incubated with the substrate ABTS for 1 hour at the dark at 37 °C. The results were then analysed in a microplate reader (TECAN) and the Abs405nm was then measured.
For the Negative control plate the protocol was the same as for the Binding microplate, except for the target immobilization. Instead of having IgG, only coating buffer was added. This plate allows to detect clones that unspecific bind to BSA present in the Blocking Buffer. For the Expression plate the protocol started at the step of incubation with the crude extract, and from there the steps were the same as the Binding microplate. This plate allows to detect clone’s basal expression level.
A general note: ELISA stands for enzyme-linked immunosorbent assay.
On to “SMGLLPGWDEYKT WVVDV GKTYYYNH FKVS KTSTWTDPRMSS [Clone H8, WW domain clone against human IgG, loops WVVDV / FKVS]”, for which the ELISA signal entry is “Moderate”.
As for “SMGLPPGWDEYKT AFSRA GKTYYYNH YLEE KTSTWTDPRMSS [Clone G5, WW domain clone against human IgG, loops AFSRA / YLEE]”, the ELISA signal entry is recorded as “High (high binders (Abs>0.4))”.
The result for “SMGLPPGWDEYKT ALSRW GKTYYYNH DWNP KTSTWTDPRMSS [Clone H7, WW domain clone against human IgG, loops ALSRW / DWNP]” reads “Moderate”; that for “SMGLPPGWDEYKT FEIVM GKTYYYNH MHTD KTSTWTDPRMSS [Clone D10, WW domain clone against human IgG, loops FEIVM / MHTD]”, “Moderate”; that for “SMGLPPGWDEYKT SLSRP GKTYYYNH EEPS KTSTWTDPRMSS [Clone G3, WW domain clone against human IgG, loops SLSRP / EEPS]”, “High (high binders (Abs>0.4))”.
Turning to “SMGLPPGWDEYKT SMALL GKTYYYNH YTPG KTSTWTDPRMSS [Clone C8, WW domain clone against human IgG, loops SMALL / YTPG]”, the ELISA signal entry is on record as “Moderate”.
For the sequence “SMGLPPGWDEYKT TLAGL GKTYYYNH YTPG KTSTWTDPRMSS [Clone G9, WW domain clone against human IgG, loops TLAGL / YTPG]”, the ELISA signal result is on record as “Moderate”.
Consider “SMGLPPGWDEYKT TMAWL GKTYYYNH YTPG KTSTWTDPRMSS [Clone A5, WW domain clone against human IgG, loops TMAWL / YTPG]”, for which the ELISA signal result is “High (high binders (Abs>0.4))”.
On to “SMGLPPGWDEYKT VLYSG GKTYYYNH IMSL KTSTWTDPRMSS [Clone H6, WW domain clone against human IgG, loops VLYSG / IMSL]”, for which the ELISA signal entry is “High (high binders (Abs>0.4))”.
Take “SMGLPPGWDEYKT YRVMV GKTYYYNH LYRL KTSTWTDPRMSS [Clone H3, WW domain clone against human IgG, loops YRVMV / LYRL]”: the ELISA signal result was “High (high binders (Abs>0.4))”.
